Laboratory results reported in paper PMC12304293, “Combatting virulent gut bacteria by inhibiting the biosynthesis of a two-component lanthipeptide toxin” (Nature Communications, 2025).
“And” between values parts separate entries of the source, which are not always exact repeats. Equal values may be shown once. Read-outs that look alike come from different tables or passages of the source. Non-standard residues stand in square brackets, D forms with d. Residues, ends and D or L forms follow the SMILES beside them. *: point of attachment. boroGlu = O=C(O)CC[C@H](N*)B(O)O; Gly(cPr) = N[C@H](C(=O)O)C1CC1

Experiments:
[1] = system: E. faecalis FA2-2 (pAM714), E. faecalis ATCC 29212; assay type: cell-based, Enterococcus faecalis; conditions: for growth curve reading, ATCC 29212 +9: E. faecalis ATCC 29212 with 9; for growth curve reading, ATCC 29212 +9 / growth curve reading, pAM714 +9: trials 1-3; for growth curve reading, pAM714 +9: E. faecalis pAM714 with 9
Protocol: To a 96-well plate, BHI media was added containing 200 µM of inhibitor 9. An overnight culture of E. faecalis was diluted to a concentration of 10^6 CFU/mL and an equal volume of this culture was added to the well containing inhibitor. A growth control was prepared by combining the diluted bacterial cells with an equal volume of sterile BHI. A sterility control well was filled with sterile BHI to the same volume. The 96-well plate was transferred to a plate reader preheated to 37 °C and the plate was shaken continuously. The OD600 of each well was measured over the course of 24 h. Uncorrected OD600 values were plotted as a function of time. […]
or B) E. faecalis ATCC 29212. Wells containing B HI media were inocul ated with 1 x 106 C F U / m L of E. faecalis .I nhibitor 9 was added to achieve a well concentration of 100 µM. A growth control well not containing 9 an d a sterile control not co ntaining bacteria were s et up on the same plate.
The plate was incubated with shaking at 37 ̊C and the OD600 was measured every 30 min for 18h.
This experiment was conducted on three biological samples (n = 3). Error bars represent the standard of devi ation and are c enter ed at the me an. Source data are p rovided as a Source Data file. […]

[2] = assay type: in vitro ADME, Enterococcus faecalis; conditions: 100 µM, 37 °C, 20 h
Protocol: To investigate the stability of 9 in the presence of E. faecalis, cell extracts treated with 9 were tested for inhibitory activity. […] Cultures that were treated with 100 µM of 9 at 37 °C for 20 h gave extracts that inhibited the activity of CylA in vitro. The inhibitory activity of these extracts was about 3-fold less than a sample of fresh 9.
Similiarly, 9 was diluted to 100 µM in BHI that was inoculated with E. faecalis ATCC 29212 before incubating at 37 °C for 20 h. The overnight culture was flash frozen and lyophilized. The lyophilized samples were extracted with a volume of 90% methanol/10% water that was equal to the volume of the sample prior to lyophilization. The extract was assumed to have a concentration of 100 µM. […]
Human Serum + 9 Human Serum
Log(Concentration (µM)) Log(Concentration(µM))
Supplementary Figure 19. The stability of inhibitor 9 in the pres ence of human serum or C+ E. faecalis. A ) C y l A i nhibition activity of an extract of human s erum treated with 9 (100 μM) for 3 h at 37 ̊C. The resulting solution was used to determine the remaining activity of the inhibitor in a […]
CylA activity assay. […] This experiment was perform ed on three different samples of inhibitor (n = 3). […]
(also on this page, place not known: determined. inhibition CylA These IC 50 presence serum This performed A) Non-linear fitting v i/vo IC 50. […]

CC(=O)NCC(=O)N[C@@H](CC(=O)O)C(=O)N[C@H](C(=O)N[C@@H](CCC(N)=O)C(=O)N[C@@H](C)C(=O)N[C@@H](CCC(=O)O)B(O)O)C1CC1 [Compound 9] (Ac-GD[Gly(cPr)]QA-boroGlu)
growth of C+ E. faecalis ([1]; 100 µM, FA2-2 (pAM714) or ATCC 29212): did not impact the growth | growth curve reading, ATCC 29212 +9 ([1]; time 0 h): 0.1154 and 0.116 and 0.0922 | growth curve reading, ATCC 29212 +9 ([1]; time 0.5 h): 0.0985 and 0.1041 and 0.0924 | growth curve reading, ATCC 29212 +9 ([1]; time 1 h): 0.1003 and 0.1065 and 0.0941 | growth curve reading, ATCC 29212 +9 ([1]; time 4 h): 0.3147 and 0.3334 and 0.308 | growth curve reading, ATCC 29212 +9 ([1]; time 4.5 h): 0.4828 and 0.507 and 0.4713 | growth curve reading, ATCC 29212 +9 ([1]; time 5 h): 0.7061 and 0.7328 and 0.6866 | growth curve reading, ATCC 29212 +9 ([1]; time 6 h): 0.8111 and 0.8333 and 0.7942 | growth curve reading, ATCC 29212 +9 ([1]; time 6.5 h): 0.8209 and 0.8395 and 0.8063 | growth curve reading, ATCC 29212 +9 ([1]; time 7 h): 0.8266 and 0.8438 and 0.8065 | growth curve reading, ATCC 29212 +9 ([1]; time 8 h): 0.8109 and 0.8262 and 0.7852 | growth curve reading, ATCC 29212 +9 ([1]; time 8.5 h): 0.7898 and 0.8142 and 0.7555 | growth curve reading, ATCC 29212 +9 ([1]; time 9 h): 0.756 and 0.7924 and 0.7138 | growth curve reading, ATCC 29212 +9 ([1]; time 9.5 h): 0.7216 and 0.7609 and 0.6743 | growth curve reading, ATCC 29212 +9 ([1]; time 10 h): 0.6983 and 0.7557 and 0.6452 | growth curve reading, ATCC 29212 +9 ([1]; time 10.5 h): 0.6599 and 0.7472 and 0.6197 | growth curve reading, ATCC 29212 +9 ([1]; time 11 h): 0.651 and 0.7261 and 0.5927 | growth curve reading, ATCC 29212 +9 ([1]; time 12 h): 0.5996 and 0.6855 and 0.5551 | growth curve reading, ATCC 29212 +9 ([1]; time 12.5 h): 0.6003 and 0.6798 and 0.5403 | growth curve reading, ATCC 29212 +9 ([1]; time 13 h): 0.594 and 0.6632 and 0.5265 | growth curve reading, ATCC 29212 +9 ([1]; time 13.5 h): 0.5622 and 0.6648 and 0.515 | growth curve reading, ATCC 29212 +9 ([1]; time 14 h): 0.5532 and 0.6505 and 0.5057 | growth curve reading, ATCC 29212 +9 ([1]; time 14.5 h): 0.547 and 0.6403 and 0.4947 | growth curve reading, ATCC 29212 +9 ([1]; time 15 h): 0.5331 and 0.6268 and 0.5432 | growth curve reading, ATCC 29212 +9 ([1]; time 15.5 h): 0.5632 and 0.6227 and 0.5048 | growth curve reading, ATCC 29212 +9 ([1]; time 16 h): 0.5401 and 0.6149 and 0.5008 | growth curve reading, ATCC 29212 +9 ([1]; time 16.5 h): 0.5274 and 0.6109 and 0.5013 | growth curve reading, ATCC 29212 +9 ([1]; time 17 h): 0.5274 and 0.5922 and 0.4935 | growth curve reading, ATCC 29212 +9 ([1]; time 17.5 h): 0.5197 and 0.5739 and 0.5382 | growth curve reading, ATCC 29212 +9 ([1]; time 18 h): 0.5155 and 0.5767 and 0.5324 | growth curve reading, pAM714 +9 ([1]; time 0 h): 0.0946 and 0.0915 and 0.093 | growth curve reading, pAM714 +9 ([1]; time 0.5 h): 0.0971 and 0.0931 and 0.0938 | growth curve reading, pAM714 +9 ([1]; time 1 h): 0.099 and 0.095 and 0.0956 | growth curve reading, pAM714 +9 ([1]; time 4 h): 0.1926 and 0.195 and 0.1996 | growth curve reading, pAM714 +9 ([1]; time 4.5 h): 0.2491 and 0.255 and 0.2626 | growth curve reading, pAM714 +9 ([1]; time 5 h): 0.3385 and 0.3521 and 0.3631 | growth curve reading, pAM714 +9 ([1]; time 6 h): 0.6065 and 0.6337 and 0.65 | growth curve reading, pAM714 +9 ([1]; time 6.5 h): 0.7256 and 0.7465 and 0.7496 | growth curve reading, pAM714 +9 ([1]; time 7 h): 0.7199 and 0.7425 and 0.7485 | growth curve reading, pAM714 +9 ([1]; time 8 h): 0.7208 and 0.7411 and 0.7548 | growth curve reading, pAM714 +9 ([1]; time 8.5 h): 0.7272 and 0.7466 and 0.7599 | growth curve reading, pAM714 +9 ([1]; time 9 h): 0.7255 and 0.7488 and 0.7571 | growth curve reading, pAM714 +9 ([1]; time 9.5 h): 0.7184 and 0.7445 and 0.7497 | growth curve reading, pAM714 +9 ([1]; time 10 h): 0.708 and 0.736 and 0.7402 | growth curve reading, pAM714 +9 ([1]; time 10.5 h): 0.6972 and 0.7258 and 0.7305 | growth curve reading, pAM714 +9 ([1]; time 11 h): 0.6856 and 0.717 and 0.7218 | growth curve reading, pAM714 +9 ([1]; time 12 h): 0.6642 and 0.6996 and 0.7054 | growth curve reading, pAM714 +9 ([1]; time 12.5 h): 0.6586 and 0.6909 and 0.6988 | growth curve reading, pAM714 +9 ([1]; time 13 h): 0.6446 and 0.6836 and 0.6924 | growth curve reading, pAM714 +9 ([1]; time 13.5 h): 0.6425 and 0.6781 and 0.6878 | growth curve reading, pAM714 +9 ([1]; time 14 h): 0.6308 and 0.6721 and 0.6814 | growth curve reading, pAM714 +9 ([1]; time 14.5 h): 0.6266 and 0.6677 and 0.6764 | growth curve reading, pAM714 +9 ([1]; time 15 h): 0.6144 and 0.6613 and 0.6745 | growth curve reading, pAM714 +9 ([1]; time 15.5 h): 0.6099 and 0.6586 and 0.6678 | growth curve reading, pAM714 +9 ([1]; time 16 h): 0.6043 and 0.6548 and 0.6659 | growth curve reading, pAM714 +9 ([1]; time 16.5 h): 0.6012 and 0.6523 and 0.6623 | growth curve reading, pAM714 +9 ([1]; time 17 h): 0.5956 and 0.6495 and 0.6597 | growth curve reading, pAM714 +9 ([1]; time 17.5 h): 0.5906 and 0.6489 and 0.6599 | growth curve reading, pAM714 +9 ([1]; time 18 h): 0.5896 and 0.647 and 0.6581 | inhibitory activity of culture extracts less than a sample of fresh 9 [2]: about 3 fold | stability in cultures of E. faecalis [2]: relatively good stability
